Data reported in article PMC5739799 (Oncotarget, 2017).
Where two headings read alike, the source gives them in different places.

What was measured:
[1] = test system: uHCC progressed on sorafenib treatment; design: method as in PMID 27932229; details: patients with uHCC who progressed on sorafenib, cited from earlier work
[2] = test system: HCC-PDX model 5; assay: Patient-derived HCC xenograft model 5, tumor growth; assay type: in vivo, BALB/c nude mice; details: for Mean TV: day 28, R 10 / S 30 mg/kg/day oral starting dose; for RTV: end of study
Experimental: (§1) The PDX studies were carried out by WuXi AppTec (Shanghai, China). HCC-PDX models were originally established from surgically resected tumor tissue that was implanted in 6–8-week-old female BALB/c nude mice. Animal studies were performed according to the guidelines approved by the Institutional Animal Care and Use Committee of Wuxi AppTec, which follow the guidance of the Association for the Assessment and Accreditation of Laboratory Animal Care. Animals were routinely monitored for their health status and their body weights. Treatment was suspended and/or doses reduced at body weight losses >10%. Animals were euthanized when the tumor size exceeded 2000 mm^3. Pieces from tumor xenografts (∼30 mm^3) from passages 4–8 (ST1) were implanted subcutaneously at the right flank, and tumors were grown to an average size of about 150–200 mm^3. […] Tumor size was measured twice weekly using caliper measurements. Tumor volume (mm^3) was calculated using the formula 0.5 a × b^2, where a and b are the long and short diameters of the tumor, respectively. TGI was assessed either by calculating the ratio of the mean tumor volumes of treated and control groups or by determination of the RTV, which relates tumor volumes at any given day of treatment to the volume at the first treatment day.
(§2) In the syngenic orthotopic H129 model, differences in survival times between groups were analyzed for significance using log-rank tests. Analysis of tumor volumes of the HCC-PDX models was performed with log2-transformed values on defined days of measurement based on the assumption of their log-normal distribution. […] All respective statistical test results were derived from a common linear model that allows for individual variances in the different groups. The adjustment for multiple testing was carried out using Šidák correction at a significance level of 0.05. Back transformation of the mean difference of log2-transformed tumor volumes led to the ratios of the compared groups, whereby ratios of 1 reflect no difference in tumor volumes and ratios below or above 1 reflect smaller or larger tumor volumes, respectively, of the respective second group. The analyses of RTV were carried out in a similar fashion without the log2 transformation of values. Bead-based western data were analyzed (described in [15]) using the MEV 4.8.1 software package. A p-value <0.05 was regarded as significant. All statistical analyses were performed with SAS® 9.4 [34].

[3] = test system: HCC-PDX model 189; assay: Patient-derived HCC xenograft model 189, tumor growth; assay type: in vivo, BALB/c nude mice; details: for Mean TV: day 21, R 10 / S 30 mg/kg/day oral starting dose; for RTV: end of study
Experimental: as §1, §2

[4] = test system: unresectable HCC (uHCC); details: patients with uHCC; placebo 7.9 months; cited from earlier work
[5] = test system: unresectable HCC (uHCC); details: placebo 4.2 months; cited from earlier work
[6] = test system: HCC-PDX model 189 xenografts; assay: DigiWest bead-based multiplex western blot of treated xenografts; assay type: in vivo, BALB/c nude mice; details: 24 hours after last dose, sorafenib 30 mg/kg/day
Experimental: For high-content Western analysis, DigiWest was performed as described by Treindl et al.. In brief, xenograft tissue was ground by a Mikro-Dismembrator (Sartorius) and subsequently lysed by the addition of 2× LDS lysis buffer (Life Technologies™) and heated to 95°C for 9 minutes with several vortexing steps. Undissolved material was removed by consecutive centrifugation at 20°C for 2 minutes at 300 x g, 5 minutes at 16,000 x g, and through a QIAshredder homogenizer tube (Qiagen) for 5 minutes at 16,000 x g. Protein concentration was determined by in-gel staining. 3 μL lysate was separated by SDS-PAGE stained with IRDye® Blue and detected with a Li-COR Odyssey Infrared Imaging System (Li-COR Biosciences, Bad Homburg, Germany) at 700 nm. Next, 12 μg protein per sample was separated using 4–12% Bis-Tris gels (Life Technologies™) according to the manufacturer’s instructions. Blotting onto PVDF membranes (Millipore) was performed under standard conditions. Proteins immobilized on the blotting membrane were biotinylated (NHS-PEG12-Biotin, Thermo Scientific) and individual sample lanes were cut into 96 strips each (height 0.5 mm each, strip width 7.5 mm) using an electronic cutting tool (Silhouette SD). Each individual strip was placed in a separate well of a 96-well plate, and protein was eluted for 2 hours in 10 μL elution buffer (8 M urea, 1% Triton-X100 in 100 mM Tris-HCl, pH 9.5). After the addition of 90 μL of dilution buffer (5% BSA in PBS, 0.02% sodium azide, 0.05% Tween-20), 96 different Neutravidin-coated Luminex bead sets (40,000 beads/well) were added to the individual wells, and eluted biotinylated proteins were captured on the bead surface during overnight incubation. After incubation, the Luminex beads were pooled, washed, and stored in storage buffer (1% BSA, 0.05% Tween-20, 0.05% sodium azide in PBS) at 4°C.
For antibody incubation, an aliquot of the bead pool was transferred into an assay plate and 30 μL of diluted western blot antibody in assay buffer (Blocking Reagent, Roche Applied Science; 0.05% Tween 20, 0.02% sodium azide, 0.2% milk powder) was added per well. 116 antibody incubations on 12 samples were performed overnight at 4°C. For read-out, beads were washed twice with 100 μL of PBST before species-specific PE-labeled secondary antibodies (Jackson) were added in 30 μL of assay buffer for 1 hour. […]
DigiWest analysis was performed as previously described. In brief, data generated by the Luminex instrument were analyzed using a dedicated analysis tool that visualizes the fluorescent signals as bar graphs and identifies antibody-specific peaks. […] After background correction, specific signal intensities are calculated as the integral of the identified peak.

Row | SMILES | Mean TV [2] [mm^3] | log TV Differences of least square-means, compound vs vehicle ([2]; day 28, log2-transformed TV) | RTV Differences of least square-means, compound vs vehicle ([2]; day 46) | RTV ([2]; day 46) | RTV Differences of least square-means, compound vs vehicle ([3]; day 21) | Mean TV [3] [mm^3] | log TV Differences of least square-means, compound vs vehicle ([3]; day 21, log2-transformed TV) | RTV ([3]; day 21) | other results
1 | CNC(=O)c1cc(Oc2ccc(NC(=O)Nc3ccc(Cl)c(C(F)(F)F)c3)c(F)c2)ccn1 [Regorafenib] | 80.96 | -29,518 | -60,049 | 1.14 | -31,656 | 322.88 | -12,395 | 2.39 | Hazard ratio for OS vs placebo ([1]; 95% CI 0.50, 0.79): 0.63; Median OS ([1]; placebo 7.8 months): 10.6 months; log TV Ratio, compound vs vehicle (T/C) ([2]; day 28): 0.13; log TV Ratio, regorafenib vs sorafenib ([2]; day 28): 0.73; log TV Differences of least square-means, regorafenib vs sorafenib ([2]; day 28, log2-transformed TV): -0.4634; RTV Differences of least square-means, regorafenib vs sorafenib ([2]; day 46): -0.6001; RTV Differences of least square-means, regorafenib vs sorafenib ([3]; day 21): -0.2628; log TV Ratio, compound vs vehicle (T/C) ([3]; day 21): 0.42; log TV Ratio, regorafenib vs sorafenib ([3]; day 21): 0.88; log TV Differences of least square-means, regorafenib vs sorafenib ([3]; day 21, log2-transformed TV): -0.1791
2 | CNC(=O)c1cc(Oc2ccc(NC(=O)Nc3ccc(Cl)c(C(F)(F)F)c3)cc2)ccn1 [Sorafenib] | 134.44 | -24,884 | -54,048 | 1.74 | -29,028 | 351.96 | -10,604 | 2.66 | Median OS [4]: 10.7 months; Median OS [5]: 6.5 months; FGF-1 protein expression vs vehicle [6]: downregulated; Full-length PARP protein expression vs vehicle [6]: significantly downregulated; Mst2 protein expression vs vehicle [6]: downregulated; cdc2-pY15 protein expression vs vehicle [6]: downregulated
